Test results as given in PubChem BioAssay AID1963968 (Molecular Pharmacology Branch, DTP, NCI, 2024).

System: 945468-187-T-J3-PDC spheroids with HUVEC/MSC, viability
Experiment: Anticancer human tumor 945468-187-T-J3-PDC patient-derived rectal carcinoma cell line growth inhibition [PI3K]
Details: for IC50: curve of first compound; for viability, T/C: stronger effect = lower value
Outline: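 Spheroid viability read-out. Co-cultures contained the tumor line plus HUVEC and human MSCs. Each agent was paired with a PI3K inhibitor (inavolisib, alpelisib, duvelisib, copanlisib) across half-log dilutions starting at clinical Cmax, or at 10 microM when Cmax was unknown.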

[1] = second compound 0.0316 µM, first compound 0.0316 µM
[2] = second compound 0.0316 µM, first compound 0.1 µM
[3] = second compound 0.0316 µM, first compound 0.316 µM
[4] = second compound 0.0316 µM, first compound 1 µM
[5] = second compound 0.0316 µM, first compound 3.16 µM
[6] = second compound 0.0316 µM, first compound 10 µM
[7] = second compound 0.1 µM, first compound 0.0316 µM
[8] = second compound 0.1 µM, first compound 0.1 µM
[9] = second compound 0.1 µM, first compound 0.316 µM
[10] = second compound 0.1 µM, first compound 1 µM
[11] = second compound 0.1 µM, first compound 3.16 µM
[12] = second compound 0.1 µM, first compound 10 µM
[13] = second compound 0.316 µM, first compound 0.0316 µM
[14] = second compound 0.316 µM, first compound 0.1 µM
[15] = second compound 0.316 µM, first compound 0.316 µM
[16] = second compound 0.316 µM, first compound 1 µM
[17] = second compound 0.316 µM, first compound 3.16 µM
[18] = second compound 0.316 µM, first compound 10 µM
[19] = second compound 1 µM, first compound 0.0316 µM
[20] = second compound 1 µM, first compound 0.1 µM
[21] = second compound 1 µM, first compound 0.316 µM
[22] = second compound 1 µM, first compound 1 µM
[23] = second compound 1 µM, first compound 3.16 µM
[24] = second compound 1 µM, first compound 10 µM
[25] = second compound 3.16 µM, first compound 0.0316 µM
[26] = second compound 3.16 µM, first compound 0.1 µM
[27] = second compound 3.16 µM, first compound 0.316 µM
[28] = second compound 3.16 µM, first compound 1 µM
[29] = second compound 3.16 µM, first compound 3.16 µM
[30] = second compound 3.16 µM, first compound 10 µM
[31] = second compound 10 µM, first compound 0.0316 µM
[32] = second compound 10 µM, first compound 0.1 µM
[33] = second compound 10 µM, first compound 0.316 µM
[34] = second compound 10 µM, first compound 1 µM
[35] = second compound 10 µM, first compound 3.16 µM
[36] = second compound 10 µM, first compound 10 µM
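Further: spheroids exposed to agents for 7 days before viability read.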
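Wherever viability, T/C is given: 100% = DMSO vehicle control viability.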

SMILES: C#Cc1c(F)ccc2cc(O)cc(-c3ncc4c(N5CC6CCC(C5)N6)nc(OCC56CCCN5CC(F)C6)nc4c3F)c12 (stereo not drawn) + CC(Nc1ncnc2nc[nH]c12)c1cc2cccc(Cl)c2c(=O)n1-c1ccccc1
- IC50 (second compound 0.0316 µM): > 10 µM
- IC50 (second compound 0.1 µM): > 10 µM
- IC50 (second compound 0.316 µM): > 10 µM
- IC50 (second compound 1 µM): > 10 µM
- IC50 (second compound 3.16 µM): > 10 µM
- IC50 (second compound 10 µM): > 10 µM
- viability, T/C [1]: 91.2%
- viability, T/C [2]: 93%
- viability, T/C [3]: 103%
- viability, T/C [4]: 110%
- viability, T/C [5]: 113%
- viability, T/C [6]: 101%
- viability, T/C [7]: 101%
- viability, T/C [8]: 105%
- viability, T/C [9]: 99.8%
- viability, T/C [10]: 103%
- viability, T/C [11]: 115%
- viability, T/C [12]: 101%
- viability, T/C [13]: 100%
- viability, T/C [14]: 97.4%
- viability, T/C [15]: 103%
- viability, T/C [16]: 107%
- viability, T/C [17]: 117%
- viability, T/C [18]: 104%
- viability, T/C [19]: 100%
- viability, T/C [20]: 95.2%
- viability, T/C [21]: 96.8%
- viability, T/C [22]: 111%
- viability, T/C [23]: 111%
- viability, T/C [24]: 97.9%
- viability, T/C [25]: 102%
- viability, T/C [26]: 105%
- viability, T/C [27]: 106%
- viability, T/C [28]: 99.8%
- viability, T/C [29]: 110%
- viability, T/C [30]: 101%
- viability, T/C [31]: 100%
- viability, T/C [32]: 99.5%
- viability, T/C [33]: 111%
- viability, T/C [34]: 126%
- viability, T/C [35]: 121%
- viability, T/C [36]: 92.5%

SMILES: C=CC(=O)N1CCN(c2nc(=O)n(-c3c(C)ccnc3C(C)C)c3nc(-c4c(O)cccc4F)c(F)cc23)C(C)C1 (stereo not drawn) + CC(Nc1ncnc2nc[nH]c12)c1cc2cccc(Cl)c2c(=O)n1-c1ccccc1
- IC50 (second compound 0.0316 µM): > 10 µM
- IC50 (second compound 0.1 µM): > 10 µM
- IC50 (second compound 0.316 µM): > 10 µM
- IC50 (second compound 1 µM): > 10 µM
- IC50 (second compound 3.16 µM): > 10 µM
- IC50 (second compound 10 µM): > 10 µM
- viability, T/C [1]: 91.9%
- viability, T/C [2]: 92.9%
- viability, T/C [3]: 104%
- viability, T/C [4]: 96.4%
- viability, T/C [5]: 96.6%
- viability, T/C [6]: 98.3%
- viability, T/C [7]: 94.7%
- viability, T/C [8]: 103%
- viability, T/C [9]: 100%
- viability, T/C [10]: 92.6%
- viability, T/C [11]: 107%
- viability, T/C [12]: 95.9%
- viability, T/C [13]: 94.8%
- viability, T/C [14]: 92.9%
- viability, T/C [15]: 88.5%
- viability, T/C [16]: 91.6%
- viability, T/C [17]: 106%
- viability, T/C [18]: 99.3%
- viability, T/C [19]: 99.3%
- viability, T/C [20]: 105%
- viability, T/C [21]: 94.8%
- viability, T/C [22]: 94.1%
- viability, T/C [23]: 107%
- viability, T/C [24]: 95.8%
- viability, T/C [25]: 90.5%
- viability, T/C [26]: 99.6%
- viability, T/C [27]: 101%
- viability, T/C [28]: 110%
- viability, T/C [29]: 97.2%
- viability, T/C [30]: 93.4%
- viability, T/C [31]: 104%
- viability, T/C [32]: 91.1%
- viability, T/C [33]: 97.9%
- viability, T/C [34]: 97.6%
- viability, T/C [35]: 116%
- viability, T/C [36]: 93.9%

SMILES: CC(Cn1ccc(-c2ccc(C#N)c(Cl)c2)n1)NC(=O)c1cc(C(C)O)[nH]n1 (stereo not drawn) + CC(Nc1ncnc2nc[nH]c12)c1cc2cccc(Cl)c2c(=O)n1-c1ccccc1
- IC50 (second compound 0.0316 µM): > 10 µM
- IC50 (second compound 0.1 µM): > 10 µM
- IC50 (second compound 0.316 µM): > 10 µM
- IC50 (second compound 1 µM): > 10 µM
- IC50 (second compound 3.16 µM): > 10 µM
- IC50 (second compound 10 µM): > 10 µM
- viability, T/C [1]: 93.4%
- viability, T/C [2]: 104%
- viability, T/C [3]: 126%
- viability, T/C [4]: 91.3%
- viability, T/C [5]: 125%
- viability, T/C [6]: 94%
- viability, T/C [7]: 91.1%
- viability, T/C [8]: 95.5%
- viability, T/C [9]: 89.5%
- viability, T/C [10]: 91.4%
- viability, T/C [11]: 114%
- viability, T/C [12]: 105%
- viability, T/C [13]: 95.5%
- viability, T/C [14]: 100%
- viability, T/C [15]: 118%
- viability, T/C [16]: 97.9%
- viability, T/C [17]: 101%
- viability, T/C [18]: 106%
- viability, T/C [19]: 87.8%
- viability, T/C [20]: 108%
- viability, T/C [21]: 98.1%
- viability, T/C [22]: 93%
- viability, T/C [23]: 104%
- viability, T/C [24]: 94.8%
- viability, T/C [25]: 94.8%
- viability, T/C [26]: 102%
- viability, T/C [27]: 96.5%
- viability, T/C [28]: 112%
- viability, T/C [29]: 113%
- viability, T/C [30]: 110%
- viability, T/C [31]: 122%
- viability, T/C [32]: 99.1%
- viability, T/C [33]: 98.2%
- viability, T/C [34]: 96.7%
- viability, T/C [35]: 104%
- viability, T/C [36]: 91.2%

SMILES: CC1(C)CCC(Nc2ncc(C(F)(F)F)c(-c3c[nH]c4c(P(C)(C)=O)c(C#N)ccc34)n2)CN1 (stereo not drawn) + CC(Nc1ncnc2nc[nH]c12)c1cc2cccc(Cl)c2c(=O)n1-c1ccccc1
- IC50 (second compound 0.0316 µM): 4.49 µM
- IC50 (second compound 0.1 µM): 4.55 µM
- IC50 (second compound 0.316 µM): 4.74 µM
- IC50 (second compound 1 µM): 4.69 µM
- IC50 (second compound 3.16 µM): 4.74 µM
- IC50 (second compound 10 µM): 4.74 µM
- viability, T/C [1]: 65.5%
- viability, T/C [2]: 64.1%
- viability, T/C [3]: 58.2%
- viability, T/C [4]: 68.1%
- viability, T/C [5]: 75.1%
- viability, T/C [6]: 12.9%
- viability, T/C [7]: 67.7%
- viability, T/C [8]: 59.8%
- viability, T/C [9]: 54.9%
- viability, T/C [10]: 72%
- viability, T/C [11]: 73%
- viability, T/C [12]: 16.6%
- viability, T/C [13]: 68.2%
- viability, T/C [14]: 67.4%
- viability, T/C [15]: 55.8%
- viability, T/C [16]: 66.2%
- viability, T/C [17]: 86.7%
- viability, T/C [18]: 15.2%
- viability, T/C [19]: 79.9%
- viability, T/C [20]: 62.4%
- viability, T/C [21]: 56.6%
- viability, T/C [22]: 67.5%
- viability, T/C [23]: 78.9%
- viability, T/C [24]: 13.4%
- viability, T/C [25]: 73.8%
- viability, T/C [26]: 64.3%
- viability, T/C [27]: 59%
- viability, T/C [28]: 66.6%
- viability, T/C [29]: 79.4%
- viability, T/C [30]: 15.7%
- viability, T/C [31]: 78.9%
- viability, T/C [32]: 66.1%
- viability, T/C [33]: 77.9%
- viability, T/C [34]: 58.9%
- viability, T/C [35]: 81.4%
- viability, T/C [36]: 7.98%
